# Test results from patent US20120258974A1, “USE OF A2B ADENOSINE RECEPTOR ANTAGONISTS FOR TREATING HEART FAILURE AND ARRHYTHMIA IN POST-MYOCARDIAL INFARCTION PATIENTS” (GILEAD SCIENCES, INC., priority 2011, published 2012).
# Tests used:
# [1] = system: primary human cardiac fibroblasts (HCF); experiment: NECA-induced release of IL-6, collagen, ST-2, PAPPA and expression of fibrotic markers in human cardiac fibroblasts (Example 2); assay type: cell-based; conditions: antagonist with NECA
# Protocol: Real-time RT-PCR was performed as published using Stratagene PCR equipment (La Jolla, Calif.). Zhong H., et al., “A2B adenosine receptors increase cytokine release by bronchial smooth muscle cells,” American Journal of Respiratory Cell and Molecular Biology, 30(1): 118-125 (2004).
# Expression of AdoR, α-smooth muscle actin and α-1 pro-collagen was determined using real-time RT-PCR. The concentration of IL-6, soluble ST-2 and PAPPA (Pregnancy-associated plasma protein A) in the cell supernatants were measured using ELISA, and the concentration of soluble collagen were determined using Sircol™ collagen assay.
# [2] = system: CD1 mice with experimental AMI (permanent coronary artery ligation); experiment: Survival after coronary artery ligation surgery (Example 4); assay type: in vivo, mouse; conditions: P=0.14; vehicle 50%
# Protocol: Adult out-bred male CD1 mice (8-12 weeks of age) were supplied by Harlan Sprague Dawley (Indianapolis, Ind.). The experiments were conducted under the guidelines of laboratory animals for biomedical research published by National Institutes of Health (No. 85-23, revised 1996). The study protocol was approved by the Virginia Commonwealth University Institutional Animal Care and Use Committee. Experimental AMI was induced by permanent coronary artery ligation in order to induce a large non-reperfused infarct involving approximately 30% of the left ventricle and leading to an ischemic dilated cardiomyopathy (Mezzaroma et al. Proc Natl Acad Sci 2011—in press and Abbate et al. Circulation 2008; 117:2670-83). Briefly, mice were orotracheally intubated under anesthesia (pentobarbital 50 to 70 mg/kg), placed in the right lateral decubitus position, then subjected to a left thoracotomy, pericardiectomy, and ligation of the proximal left coronary artery. The chest was closed and the animals were allowed to recover. […]
# Differences between the groups were analyzed using the one-way ANOVA followed by Bonferroni test. Changes in repeated measures of echocardiographic data were analyzed using the random effects ANOVA for repeated-measures to determine the main effect of time, group, and time-by-group interaction. […]
# [3] = system: male mice with permanent coronary artery ligation; experiment: Mouse model of myocardial infarction: ECHO, plasma biomarkers, mortality (Example 5); assay type: in vivo
# Protocol: The effect of Compound A in a mouse model of myocardial infarction was also determined. Male mice underwent permanent coronary artery ligation or sham surgery. Compound A (4 mg/kg) was given i.p. BID starting immediately or 1 hr after the surgery and continued for 14 days. Trans-thoracic ECHO to measure LV end-diastolic/systolic diameter (LVEDD or LVESD), RV end-diastolic area (RVEDA) and myocardial performance index (MPI) was performed prior to surgery and after 7, 14 and 28 days. Analysis of biomarkers of tissue inflammation and injury was conducted on 28 days post-MI.
# [4] = system: rats with MI (25 minutes coronary occlusion followed by reperfusion); experiment: Rat model of post-MI remodeling: serial echocardiograms (Example 6); assay type: in vivo
# Protocol: (§1) The effects of Compound A in a rat model of post-MI remodeling and VT were determined. MI was caused by 25 minutes occlusion at the left anterior descending coronary ligation followed by reperfusion. One week later, rats were administered either vehicle or Compound A (100 mg/kg) once daily by oral gavage. Serial echocardiograms (ECHOs) to measure LV ejection fraction (LVEF), stroke volume and LV end systolic volume (LVESV) were obtained at baseline, 1 week and 5 week post-MI. Electrophysiological studies, optical mapping, histology and biomarker analysis were conducted at 5 week post-MI.
# [5] = system: rats with MI (25 minutes coronary occlusion followed by reperfusion); experiment: Histology of fibrosis in the infarct border zone, rat post-MI model (Example 6); assay type: in vivo; conditions: 5 week post-MI; Sirius red; vs vehicle control
# Protocol: as §1
# Abnormal conduction in the IBZ is due to tissue remodeling. Excessive fibrosis in the IBZ is an important substrate for VT vulnerability.
# [6] = system: human cardiac myocytes (HCM); experiment: NECA-induced IL-6 release from human cardiac myocytes (Example 7); assay type: cell-based; conditions: NECA in combination with antagonist
# Protocol: This example uses human cardiac myocytes to test two other A2B adenosine receptor antagonists on their effect on NECA-induced IL-6 release.
# Human cardiac myocytes (HCM) were treated with NECA alone, or in combination with Compound A, Compound B (N-[5-(1-cyclopropyl-2,6-dioxo-3-propyl-2,3,6,7-tetrahydro-1H-purin-8-yl)-pyridin-2-yl]-N-ethyl-nicotinamide, also known as ATL-801) or Compound C (2-(4-benzyloxy-phenyl)-N-[5-(2,6-dioxo-1,3-dipropyl-2,3,6,7-tetrahydro-1H-purin-8-yl)-1-methyl-1H-pyrazol-3-yl]-acetamide).
# [7] = mice with MI, 4 mg/kg i.p. BID starting immediately or 1 hr after the surgery
# [8] = mice with MI, day 28 post-MI, treatment immediately after surgery
compound,measurement,setting,value
"CCCn1c(=O)c2[nH]c(-c3cnn(Cc4cccc(C(F)(F)F)c4)c3)nc2n(CC)c1=O [Compound A, 3-ethyl-1-propyl-8-(1-(3-(trifluoromethyl)benzyl)-1H-pyrazol-4-yl)-1H-purine-2,6(3H,7H)-dione]",effect of NECA on expression of α-1 pro-collagen,[1],completely abolished
same,effect of NECA on expression of α-smooth muscle actin,[1],completely abolished
same,effect of NECA on release of IL-6,[1],completely abolished
same,effect of NECA on release of PAPPA,[1],completely abolished
same,effect of NECA on release of ST-2,[1],completely abolished
same,effect of NECA on release of collagen,[1],completely abolished
same,mice alive at 28 days after coronary artery ligation surgery,[2],75%
same,mortality rate (printed: morality rate) of mice with MI during the 4 weeks,"[3]; 4 mg/kg i.p. BID for 14 days, vehicle 42%",25%
same,increase of plasma level of sE-selectin,[3]; mice with MI,significantly inhibited
same,increase of plasma level of sICAM,[3]; mice with MI,significantly inhibited
same,increase of plasma level of sVCAM,[3]; mice with MI,significantly inhibited
same,"LV/RV dimensions (LVEDD, LVESD, RVEDA)",[3]; [7],significantly reduced
same,MPI,[3]; [7],reduced
same,plasma concentration of IL-6,[3]; [8],significantly reduced
same,plasma concentration of ST2,[3]; [8],significantly reduced
same,plasma concentration of TNF-α,[3]; [8],significantly reduced
same,myocardial remodeling/function in sham mice,[3]; sham mice,no effect
same,plasma biomarkers in sham-operated mice,[3]; sham-operated mice,no effect
same,increase in LVESV,[4]; 100 mg/kg once daily oral gavage from 1 week post-MI,significantly reduced
same,LVEF,"[4]; 1 week post-MI (start of dosing), Compound A group",53.1±3.2%
same,LVEF,"[4]; 5 weeks post-MI, 100 mg/kg once daily oral gavage from 1 week post-MI, vehicle 40.7±2.2",55.6±2.6%
same,fibrosis in the IBZ,[5],inhibited
same,effect of NECA on HCM (IL-6 release),[6],completely abolished
